In publication PMC10897476, “Pyridylpiperazine efflux pump inhibitor boosts in vivo antibiotic efficacy against K. pneumoniae” (EMBO Molecular Medicine, 2023):
Where “and” joins values, the source holds several entries; their conditions need not be identical. Equal entries are not always repeated. Where a SMILES comes first, the peptide text is derived from it.

What was measured:
Type in all cases: cell-based, Klebsiella pneumoniae
[1] = test system: K. pneumoniae AcrB^V448E; test: MIC of antibiotics with and without EPI (REMA), AcrB V448E mutant; settings: K. pneumoniae-AcrB^V448E, Table 2
How it was run: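 K. pneumoniae ATCC 43816 carrying single chromosomal acrB or ramR mutations introduced by allelic exchange, diluted to OD600 = 0.001 in CAMHB with EPI at final 100 µM. Incubated 37 °C up to 20 h; viability by resazurin fluorescence (Ex 530/Em 590 nm).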

[2] = test system: K. pneumoniae ATCC 43816 (WT); test: Checkerboard assay levofloxacin x EPI, WT strain; settings: for checkerboard growth readout: ATCC43816 WT, levofloxacin 0 ng/mL; for percentage resazurin turnover: individual replicates, listed as PABN; for Median REMA values (percentage resazurin turnover): median n=3
Method: (§1) MIC experiments were carried out according to the CLSI guidelines (CLSI [2023]). Overnight cultures were diluted to an OD600 = 0.001 in CAMHB followed by addition of efflux pump inhibitors (EPIs) at a final concentration of 100 µM. […] Plates were incubated at 37 °C for up to 20 h. Bacterial viability was evaluated using the resazurin microtitre assay (REMA) and measured by fluorescence using a Tecan Spaert multimode plate reader (Ex: 530 nm Em: 590 nm). MICs were defined as the concentration that prevented 90% of resazurin turnover compared to the non-treated bacteria.
(§2) Bacterial suspensions, incubation and plate readouts were carried out as described above.

[3] = test system: K. pneumoniae RamR^mut (K124*stop); test: Checkerboard assay levofloxacin x EPI, RamR mutant; settings: for checkerboard growth readout: ATCC43816 ramRmut, levofloxacin 0 ng/mL
Method: as §1, §2

[4] = test system: K. pneumoniae AcrB^V448E; test: Checkerboard assay levofloxacin x EPI, AcrB V448E mutant; settings: for checkerboard growth readout: ATCC43816 AcrBV448E, levofloxacin 0 ng/mL; for Median REMA values / percentage resazurin turnover: Lev 0.00 ng/mL
Method: as §1, §2

[5] = test system: K. pneumoniae AcrB^V448E RamR^mut; test: Checkerboard assay levofloxacin x EPI, double mutant; settings: ATCC43816 AcrBV448E ramRmut, levofloxacin 0 ng/mL
Method: as §1, §2

NC(N)=NCCC[C@H](NC(=O)[C@@H](N)Cc1ccccc1)C(=O)Nc1ccc2ccccc2c1 [PAβN] (HELM PEPTIDE1{F.R.[c1ccc2cc(N[*:1])ccc2c1]}$$$$V2.0)
susceptibility of the strain to antibiotic boosting by the EPI, in words [1]: remained sensitive | checkerboard growth readout ([2]; EPI 2.3 µM): 75 | checkerboard growth readout ([2]; EPI 4.7 µM): 87 | checkerboard growth readout ([2]; EPI 9.4 µM): 110 | checkerboard growth readout ([2]; EPI 19 µM): 116 | checkerboard growth readout ([2]; EPI 38 µM): 154 | checkerboard growth readout ([2]; EPI 75 µM): 143 | checkerboard growth readout ([2]; EPI 150 µM): 129 | checkerboard growth readout ([2]; EPI 300 µM): 135 | percentage resazurin turnover ([2]; Lev 0.00 ng/mL + EPI 2.34 uM): 100% and 75% and 71% | Median REMA values (percentage resazurin turnover) ([2]; Lev 0.00 ng/mL + EPI 2.34 uM): 75% | percentage resazurin turnover ([2]; Lev 0.00 ng/mL + EPI 4.69 uM): 108% and 87% and 69% | Median REMA values (percentage resazurin turnover) ([2]; Lev 0.00 ng/mL + EPI 4.69 uM): 87% | percentage resazurin turnover ([2]; Lev 0.00 ng/mL + EPI 9.38 uM): 112% and 110% and 90% | Median REMA values (percentage resazurin turnover) ([2]; Lev 0.00 ng/mL + EPI 9.38 uM): 110% | percentage resazurin turnover ([2]; Lev 0.00 ng/mL + EPI 18.75 uM): 116% and 136% and 109% | Median REMA values (percentage resazurin turnover) ([2]; Lev 0.00 ng/mL + EPI 18.75 uM): 116% | percentage resazurin turnover ([2]; Lev 0.00 ng/mL + EPI 37.50 uM): 154% and 197% and 115% | Median REMA values (percentage resazurin turnover) ([2]; Lev 0.00 ng/mL + EPI 37.50 uM): 154% | percentage resazurin turnover ([2]; Lev 0.00 ng/mL + EPI 75.00 uM): 134% and 143% and 152% | Median REMA values (percentage resazurin turnover) ([2]; Lev 0.00 ng/mL + EPI 75.00 uM): 143% | percentage resazurin turnover ([2]; Lev 0.00 ng/mL + EPI 150.00 uM): 129% and 156% and 124% | Median REMA values (percentage resazurin turnover) ([2]; Lev 0.00 ng/mL + EPI 150.00 uM): 129% | percentage resazurin turnover ([2]; Lev 0.00 ng/mL + EPI 300 uM): 162% and 135% and 125% | Median REMA values (percentage resazurin turnover) ([2]; Lev 0.00 ng/mL + EPI 300 uM): 135% | checkerboard growth readout ([3]; EPI 2.3 µM): 83 | checkerboard growth readout ([3]; EPI 4.7 µM): 85 | checkerboard growth readout ([3]; EPI 9.4 µM): 97 | checkerboard growth readout ([3]; EPI 19 µM): 113 | checkerboard growth readout ([3]; EPI 38 µM): 126 | checkerboard growth readout ([3]; EPI 75 µM): 200 | checkerboard growth readout ([3]; EPI 150 µM): 177 | checkerboard growth readout ([3]; EPI 300 µM): 157 | reversion of RamR-mediated levofloxacin resistance, in words ([3]; K. pneumoniae RamR^mut): only be partially reverted | checkerboard growth readout ([4]; EPI 2.3 µM): 91 | checkerboard growth readout ([4]; EPI 4.7 µM): 95 | checkerboard growth readout ([4]; EPI 9.4 µM): 107 | checkerboard growth readout ([4]; EPI 19 µM): 112 | checkerboard growth readout ([4]; EPI 38 µM): 147 | checkerboard growth readout ([4]; EPI 75 µM): 161 | checkerboard growth readout ([4]; EPI 150 µM): 143 | checkerboard growth readout ([4]; EPI 300 µM): 143 | boosting of levofloxacin activity, in words ([4]; K. pneumoniae AcrB^V448E): maintained | Median REMA values ([4]; PABN 2.34 uM): 91% | percentage resazurin turnover ([4]; PABN 2.34 uM): 108% and 91% and 74% | Median REMA values ([4]; PABN 4.69 uM): 95% | percentage resazurin turnover ([4]; PABN 4.69 uM): 95% and 102% and 74% | Median REMA values ([4]; PABN 9.38 uM): 107% | percentage resazurin turnover ([4]; PABN 9.38 uM): 113% and 107% and 80% | Median REMA values ([4]; PABN 18.75 uM): 112% | percentage resazurin turnover ([4]; PABN 18.75 uM): 120% and 112% | Median REMA values ([4]; PABN 37.50 uM): 147% | percentage resazurin turnover ([4]; PABN 37.50 uM): 147% and 150% and 121% | Median REMA values ([4]; PABN 75.00 uM): 161% | percentage resazurin turnover ([4]; PABN 75.00 uM): 161% and 123% and 162% | Median REMA values ([4]; PABN 150.00 uM): 143% | percentage resazurin turnover ([4]; PABN 150.00 uM): 143% and 146% and 114% | Median REMA values ([4]; PABN 300 uM): 143% | percentage resazurin turnover ([4]; PABN 300 uM): 143% and 112% | checkerboard growth readout ([5]; EPI 2.3 µM): 79 | checkerboard growth readout ([5]; EPI 4.7 µM): 95 | checkerboard growth readout ([5]; EPI 9.4 µM): 80 | checkerboard growth readout ([5]; EPI 19 µM): 121 | checkerboard growth readout ([5]; EPI 38 µM): 158 | checkerboard growth readout ([5]; EPI 75 µM): 211 | checkerboard growth readout ([5]; EPI 150 µM): 226 | checkerboard growth readout ([5]; EPI 300 µM): 191
